Results from PMC9026348, “Investigation of Direct and Retro Chromone-2-Carboxamides Based Analogs of Pseudomonas aeruginosa Quorum Sensing Signal as New Anti-Biofilm Agents” (Pharmaceuticals, 2022).

What was measured:
[1] = system: P. aeruginosa PAO1 biofilms; assay: Anti-biofilm assay, CFU count of adherent cells; format: cell-based, Pseudomonas aeruginosa PAO1; conditions: PAO1, 48 h, relative to untreated control, mean ± SD of 3 independent experiments; for inhibition at 50 µM: Pseudomonas aeruginosa; for Biofilm Inhibition (%): 50 µM
Method: The effect of all compounds was evaluated on PAO1 biofilms, grown in 24-well microplates. The antibiofilm assay used in this study is based on a low nutritive culture medium, a rather weak inoculum (10^2 CFU/mL), and a regular renewal of the culture medium (at 2, 4, 6, 20, and 24 h), in order to promote the growth of adhered cells as biofilm, instead of the growth and/or sedimentation of planktonic cells. Since the QS systems are involved in early steps of biofilm formation, compounds were added at t0. After incubation, viable cells were quantified by CFU plate counts.
The rather low concentration of 50 µM used was set up according to detected concentrations of QS molecules in CF patients’ lungs. […] For all compounds, MICs/MBCs were higher than 500 µM. To be considered active, a threshold of 50% inhibition, relative to the untreated control, was applied.
Pseudomonas aeruginosa PAO1 was obtained from the Institute Pasteur Collection (CIP 104116, Paris, France), frozen and kept at -80 °C in a 20% (v/v) glycerol stock solution. Before each experiment, two successive subcultures were prepared on trypticase soy agar and incubated for 24 h under aerobic conditions at 37 °C. Before each experiment, bacterial suspensions of 10^8 CFU/mL were prepared by adjusting OD at 640 nm to 0.150.
The bacterial enumerations were done on trypticase soy agar. The minimum biofilm broth used for biofilm formation (MBB) was prepared in sterile distilled water (SDW) and was composed of MgSO4·7H2O (0.02 g/L), FeSO4·7H2O (0.5 mg/L), Na2HPO4 (1.25 g/L), KH2PO4 (0.5 g/L), (NH4)2SO4 (0.1 g/L), and glucose (0.05 g/L) from Merck-Sigma (France).
The enumeration of adhered bacteria was carried-out according to Campanac et al. with some modifications. P. aeruginosa biofilms were grown in a 24-wells microtiter plate for 48 h. The culture medium was composed of BBM 2X (1.0 mL) and 1.0 mL of a 10^−4 M solution of tested compound dissolved in SDW (final concentration 50 µM). After inoculation with 100 µL of a 10^2 CFU/mL bacterial suspension of P. aeruginosa PAO1 (final inoculum 10 CFU/well), the microtiter plate was incubated à 37 °C. After 2 h, 4 h, 6 h, 20 h and 24 h of incubation, each well was emptied, rinsed twice with SDW, and the culture medium was renewed. After 48 h of culture, the biofilm was rinsed twice with 2.0 mL SDW. The bottom of each well was scraped with a sterile spatula and suspended in 1.0 mL of SDW. The content of each well was diluted by serial dilutions in test tubes. After inclusion of 0.9 mL of each dilution in trypticase soy agar, Petri dishes were incubated for 48 h at 37 °C. The number of colony forming units (CFUs) was counted and the inhibition percentage calculated using the following formula: Inhibition(%)=Adhered cellsControl(CFU/mL)−Adhered cellsSample(CFU/mL) /Adhered cellsControl×100

[2] = Cytotoxicity, MTT assay; format: cell-based; conditions: African green monkey, Vero cells (ATCC CCL-81)
Method: Cells were incubated with different concentrations of compounds 3e, 3′a, 6a, 6b, 6d, 6f, 6k, 6s, 6n, and 6o, varying from 3.9 µM to 1.0 mM. The relative cell viabilities were determined after 24 h using the MTT assay and compared to the untreated control (100% viability). A 5% Tween solution was used as positive control. Figure 5 reports the viability % for all evaluated concentrations.
Evaluation of compounds’ cytotoxicity was performed using the MTT (3-(4,5-dimethylthiazol-2-yl)-2,5-diphenyltetrazolium bromide) colorimetric assay, based on the Mosmann et al. procedure with some modifications. […] Stock solutions of each compound prepared in Dulbeccos’s phosphate-buffered saline (D-PBS, Sigma, St. Quentin Fallavier, France) at a concentration of 2 mM were subjected to 2-fold serial dilutions with RPMI medium.
96-wells microtiter plates were first filled with 100 µL of a cell suspension prepared in RPMI medium (2 × 10^4 cells/100 µL). […] A third control was performed with a non-inoculated culture medium and compounds solution to validate the absence of interactions (OD measurements) between the assessed molecule and the reagents used in the procedure. […] After agitation, the OD was measured at 570 nm using a CLARIOstar Plus plate reader (BMG Labtech) and the viability percentage was calculated using the following formula. […]

Row | Structure (SMILES) | melting point [°C] | inhibition at 50 µM [1] [%] | Biofilm Inhibition (%) [1] | IC50 at 24 h [2] [µM]
1 | O=C(Nc1cc(=O)c2ccccc2o1)c1ccc(Br)cc1 [6g, 4-Bromo-N-(4-oxo-4H-chromen-2-yl) benzamide] | 287 | 56.2 ± 7.9 |  | 
2 | O=C(Nc1cc(=O)c2ccccc2o1)c1ccccc1F [6h, 2-Fluoro-N-(4-oxo-4H-chromen-2-yl) benzamide] | 194 | 27.8 ± 10.7 |  | 
3 | O=C(Nc1cc(=O)c2ccccc2o1)c1ccccc1Cl [6i, 2-Chloro-N-(4-oxo-4H-chromen-2-yl) benzamide] | 228 | 59.3 ± 3.3 |  | 
4 | O=C(Nc1cc(=O)c2ccccc2o1)c1ccccc1Br [6j, 2-Bromo-N-(4-oxo-4H-chromen-2-yl) benzamide] | 215 to 218 | 36.1 ± 4.1 |  | 
5 | O=C(Nc1cc(=O)c2ccccc2o1)c1ccc(F)cc1Cl [6k, 2-Chloro-4-fluoro-N-(4-oxo-4H-chromen-2-yl) benzamide] | 249 | 63.2 ± 9.3 |  | 
6 | O=C(Nc1cc(=O)c2ccccc2o1)c1ccc(F)c(Cl)c1 [6l, 3-Chloro-4-fluoro-N-(4-oxo-4H-chromen-2-yl) benzamide] | 224 | 67.2 ± 5.2 |  | 
7 | O=C(Nc1cc(=O)c2ccccc2o1)c1ccc([N+](=O)[O-])cc1 [6m, 4-Nitro-N-(4-oxo-4H-chromen-2-yl) benzamide] | 323 | < 10 | inactive | 
8 | O=C(Nc1cc(=O)c2ccccc2o1)c1ccc([N+](=O)[O-])cc1[N+](=O)[O-] [6n, 2,4-Dinitro-N-(4-oxo-4H-chromen-2-yl) benzamide] | 252 | 90.9 ± 9.9 | 90.0 ± 9.9% | > 1000
9 | O=C(Nc1cc(=O)c2ccccc2o1)c1cc([N+](=O)[O-])cc([N+](=O)[O-])c1 [6o, 3,5-Dinitro-N-(4-oxo-4H-chromen-2-yl) benzamide] | 291 | 78.3 ± 4 |  | 
10 | COc1ccc(C(=O)Nc2cc(=O)c3ccccc3o2)cc1 [6p, 4-Methoxy-N-(4-oxo-4H-chromen-2-yl) benzamide] | 227 | 39.3 ± 17.1 |  | 
11 | COc1ccccc1C(=O)Nc1cc(=O)c2ccccc2o1 [6q, 2-Methoxy-N-(4-oxo-4H-chromen-2-yl) benzamide] | 260 | 35.2 ± 6.8 |  | 
12 | CSc1ccccc1C(=O)Nc1cc(=O)c2ccccc2o1 [6r, 2-(Methylthio)-N-(4-oxo-4H-chromen-2-yl) benzamide] | 218 | 60.3 ± 15.8 |  | 
13 | COc1ccc(C(=O)Nc2cc(=O)c3ccccc3o2)cc1OC [6s, 3,4-Dimethoxy-N-(4-oxo-4H-chromen-2-yl) benzamide] | 246 | 71.9 ± 13.5 |  | 
14 | COc1cc(OC)cc(C(=O)Nc2cc(=O)c3ccccc3o2)c1 [6t, 3,5-Dimethoxy-N-(4-oxo-4H-chromen-2-yl) benzamide] | 198 | 43.8 ± 2.4 |  | 
15 | O=C(Nc1cc(=O)c2ccccc2o1)c1ccc(N2CCOCC2)cc1 [6u, 4-Morpholino-N-(4-oxo-4H-chromen-2-yl) benzamide] | 287 | 56.8 ± 10 |  | 
16 | O=C(Nc1cc(=O)c2ccccc2o1)c1ncccn1 [6v, N-(4-Oxo-4H-chromen-2-yl) pyrimidine-2-carboxamide] | 215 | 48.8 ± 2.6 |  | 
17 | CCCC(=O)Nc1cc(=O)c2ccccc2o1 [6w, N-(4-Oxo-4H-chromen-2-yl) butyramide] | 212 | 56.4 ± 7.2 |  | 
18 | O=C(Nc1cc(=O)c2ccccc2o1)C1CCCCC1 [6x, N-(4-Oxo-4H-chromen-2-yl)cyclohexanecarboxamide] | 241 | 48.7 ± 5.3 |  | 
19 | O=C(Nc1cc(=O)c2ccccc2o1)C12CC3CC(CC(C3)C1)C2 [6y, (3R,5R,7R)-N-(4-Oxo-4H-chromen-2-yl) adamantane-1-carboxamide] | 286 | 19.5 ± 1.8 |  | 
